# Experimental data as given in ChEMBL document CHEMBL1777728, “Amino-caprolactam γ-secretase inhibitors showing potential for the treatment of Alzheimer's disease” (Bioorg Med Chem Lett, 2011).
# Tests used:
# [1] = Inhibition of gamma-secretase-mediated notch cleavage after 2 hrs by ELISA
# [2] = Inhibition of gamma-secretase-mediated APP cleavage assessed as amyloid beta40 level after 2 hrs by ELISA
# [3] = Selectivity ratio of IC50 for gamma-secretase-mediated notch cleavage to IC50 gamma-secretase-mediated APP cleavage
# Mus musculus [4] = test: Neuroprotective activity in P-gp KO (MDR1 ab-/-) mouse brain assessed as reduction of amyloid beta x-40 level at 100 mg/kg, ip; format: functional; settings: route intraperitoneal
# MDCK = test: Efflux ratio of permeability from basolateral to apical over apical to basolateral side in human MDR1 transfected MDCK cells at 5 uM after 120 mins by LC-MS/MS analysis; format: ADME, cell-based, Canis lupus familiaris; settings: dog, 2 h
# Mus musculus [5] = test: Neuroprotective activity in wild type FVB mouse brain assessed as reduction of amyloid beta x-40 level at 100 mg/kg, ip; format: functional; settings: route intraperitoneal
Compound,IC50 [1],IC50 [2],Ratio IC50 [3],inhibition in vivo at 100 mg/kg (Mus musculus [4]),Ratio (MDCK),inhibition in vivo at 100 mg/kg (Mus musculus [5])
O=C1NCCCC[C@H]1N(Cc1cnc2ncccc2c1)S(=O)(=O)c1ccc(Cl)cc1,1050 nM,290 nM,4,,,
COc1cc(CN([C@H]2CCCCNC2=O)S(=O)(=O)c2ccc(Cl)cc2)ccc1OCCc1scnc1C,,2000 nM,,,,
COc1cc(CN(C2CCCCNC2=O)S(=O)(=O)c2ccc(Cl)cc2)ccc1OCCc1scnc1C (configuration not stated),,1700 nM,,,,
Cn1c(CN([C@@H]2CCCCNC2=O)S(=O)(=O)c2ccc(Cl)cc2)cc2ccccc21,2790 nM,565 nM,5,,,
O=C1NCCCC[C@H]1N(Cc1ccc2nccnc2c1)S(=O)(=O)c1ccc(Cl)cc1,28 nM,15 nM,2,61%,1.8,26%
CC(C)(C)CNC(=O)c1ccc(CN([C@@H]2CCCCNC2=O)S(=O)(=O)c2ccc(Cl)cc2)cc1,55 nM,30 nM,2,,,
Cn1nnc2cc(CN([C@@H]3CCCCNC3=O)S(=O)(=O)c3ccc(Cl)cc3)ccc21,,12 nM,,,,
O=C(NC1CCCC1)c1ccc(CN([C@@H]2CCCCNC2=O)S(=O)(=O)c2ccc(Cl)cc2)cc1,14 nM,23 nM,0.6,,,
O=C1NCCCC[C@H]1N(Cc1cc2ccccc2o1)S(=O)(=O)c1ccc(Cl)cc1,30 nM,12 nM,2,,,
O=C1NCCCC[C@H]1N(Cc1ccc2c(c1)OCCO2)S(=O)(=O)c1ccc(Cl)cc1,152 nM,9 nM,17,,2.7,
O=C1NCCCC[C@H]1N(Cc1ccc2nsnc2c1)S(=O)(=O)c1ccc(Cl)cc1,39 nM,13 nM,3,,2,
O=C1NCCCC[C@H]1N(Cc1ccc2ncccc2c1)S(=O)(=O)c1ccc(Cl)cc1,4 nM,6 nM,0.6,62%,1.8,20%
O=C1NCCCC[C@H]1N(Cc1csnn1)S(=O)(=O)c1ccc(Cl)cc1,2120 nM,758 nM,3,,,
O=C1NCCCC[C@H]1N(Cc1cnc2ccccc2c1)S(=O)(=O)c1ccc(Cl)cc1,126 nM,52 nM,2,,,
O=C1NCCCC[C@H]1N(Cc1nccs1)S(=O)(=O)c1ccc(Cl)cc1,1830 nM,1830 nM,1,,,
O=C(NC1CC1)c1ccc(CN([C@@H]2CCCCNC2=O)S(=O)(=O)c2ccc(Cl)cc2)cc1,65 nM,31 nM,2,,,
Cc1ccc(CN([C@@H]2CCCCNC2=O)S(=O)(=O)c2ccc(Cl)cc2)o1,601 nM,432 nM,1,,,
Cc1ccc(CN([C@@H]2CCCCNC2=O)S(=O)(=O)c2ccc(Cl)cc2)s1,,81 nM,,,,
COC(=O)c1ccc(CN([C@@H]2CCCCNC2=O)S(=O)(=O)c2ccc(Cl)cc2)cc1,,3 nM,,,,
Cc1cccc(CN([C@@H]2CCCCNC2=O)S(=O)(=O)c2ccc(Cl)cc2)n1,9320 nM,5360 nM,2,,,
O=C(Nc1ccccc1)c1ccc(CN([C@@H]2CCCCNC2=O)S(=O)(=O)c2ccc(Cl)cc2)cc1,91 nM,76 nM,1,,,
O=C(NC1CCC1)c1ccc(CN([C@@H]2CCCCNC2=O)S(=O)(=O)c2ccc(Cl)cc2)cc1,49 nM,23 nM,2,,,
O=C1NCCCC[C@H]1N(Cc1cc2ccccc2s1)S(=O)(=O)c1ccc(Cl)cc1,46 nM,7 nM,6,,,
O=C(NCc1ccccc1)c1ccc(CN([C@@H]2CCCCNC2=O)S(=O)(=O)c2ccc(Cl)cc2)cc1,16 nM,9 nM,2,,,
CC(C)NC(=O)c1ccc(CN([C@@H]2CCCCNC2=O)S(=O)(=O)c2ccc(Cl)cc2)cc1,66 nM,30 nM,2,,,
O=C1NCCCC[C@H]1N(CC1CCc2ccccc2O1)S(=O)(=O)c1ccc(Cl)cc1 (some centres not stated),196 nM,131 nM,1,,,
CCCNC(=O)c1ccc(CN([C@@H]2CCCCNC2=O)S(=O)(=O)c2ccc(Cl)cc2)cc1,26 nM,45 nM,0.5,,,
COc1cc(CN([C@@H]2CCCCNC2=O)S(=O)(=O)c2ccc(Cl)cc2)ccc1OCCc1scnc1C,,170 nM,,,,
COc1ccc(CN([C@@H]2CCCCNC2=O)S(=O)(=O)c2ccc(Cl)cc2)cc1OC,,170 nM,,,,
O=C1NCCCC[C@H]1N(Cc1ccc2snnc2c1)S(=O)(=O)c1ccc(Cl)cc1,25 nM,8 nM,3,60%,2,32%
